ChEMBL document CHEMBL5050844 (2019)

Legend:
[1] = Induction of anti-CD3/CD28 antibodies-stimulated human T cell activation at 0.3 uM assessed fold increase in IL-2 secretion measured by ELISA assay; assay type: functional, T cell line
[2] = Induction of anti-CD3 antibodies-stimulated human T cell activation at 8 uM assessed fold increase in IL-2 secretion measured by ELISA assay; assay type: functional, T cell line; note: reference of the scale not given here
[3] = target: T1, E3 ubiquitin-protein ligase CBL-B (Homo sapiens, UniProt Q13191); experiment: Binding affinity towards N-terminal biotinylated Avi-tagged human CBL-B (36 to 427 residues) measured by surface plasmon resonance assay
T1 sequence (Q13191 whole entry, the tested form may be a part): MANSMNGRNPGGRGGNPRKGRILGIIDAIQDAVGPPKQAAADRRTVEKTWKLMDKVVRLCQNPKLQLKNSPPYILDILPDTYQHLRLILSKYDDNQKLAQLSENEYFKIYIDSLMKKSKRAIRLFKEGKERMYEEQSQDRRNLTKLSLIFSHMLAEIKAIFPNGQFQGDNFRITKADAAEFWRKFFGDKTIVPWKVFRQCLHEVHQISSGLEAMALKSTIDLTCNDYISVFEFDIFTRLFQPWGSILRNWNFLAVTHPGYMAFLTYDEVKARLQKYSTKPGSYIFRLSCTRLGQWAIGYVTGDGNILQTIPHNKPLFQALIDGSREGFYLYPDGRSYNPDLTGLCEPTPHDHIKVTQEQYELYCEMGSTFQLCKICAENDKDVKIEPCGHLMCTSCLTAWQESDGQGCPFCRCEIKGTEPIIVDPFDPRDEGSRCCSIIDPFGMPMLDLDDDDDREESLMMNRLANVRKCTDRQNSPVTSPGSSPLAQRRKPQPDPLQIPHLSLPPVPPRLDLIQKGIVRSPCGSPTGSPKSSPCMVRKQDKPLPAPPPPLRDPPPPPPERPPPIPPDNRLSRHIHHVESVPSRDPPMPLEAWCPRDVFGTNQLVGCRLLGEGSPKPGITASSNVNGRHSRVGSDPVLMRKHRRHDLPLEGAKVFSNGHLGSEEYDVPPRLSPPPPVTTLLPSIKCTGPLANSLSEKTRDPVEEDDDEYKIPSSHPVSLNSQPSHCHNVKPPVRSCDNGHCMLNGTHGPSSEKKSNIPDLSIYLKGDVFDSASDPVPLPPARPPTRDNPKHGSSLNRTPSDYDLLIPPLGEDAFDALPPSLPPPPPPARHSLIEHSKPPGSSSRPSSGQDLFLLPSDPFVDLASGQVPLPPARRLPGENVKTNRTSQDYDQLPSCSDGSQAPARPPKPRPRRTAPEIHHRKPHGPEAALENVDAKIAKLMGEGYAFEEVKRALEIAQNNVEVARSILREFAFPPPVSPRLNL

[4] = Induction of anti-CD3 antibodies-stimulated human T cell activation at 1 uM assessed fold increase in IL-2 secretion measured by ELISA assay; assay type: functional, T cell line; note: reference of the scale not given here
[5] = Induction of anti-CD3/CD28 antibodies-stimulated human T cell activation at 1 uM assessed fold increase in CD25 expression measured by ELISA assay; assay type: functional, T cell line
[6] = Induction of anti-CD3 antibodies-stimulated human T cell activation at 1 uM assessed fold increase in CD25 expression measured by ELISA assay; assay type: functional, T cell line; note: reference of the scale not given here
[7] = Induction of anti-CD3/CD28 antibodies-stimulated human T cell activation at 0.3 uM assessed fold increase in CD25 expression measured by ELISA assay; assay type: functional, T cell line
[8] = target: T1, E3 ubiquitin-protein ligase CBL-B; experiment: Inhibition of N-terminal Avi-tagged human CBL-B (36 to 427 residues) incubated with 60 nM Src kinase for 1.5 hrs followed by incubation with fluorescently labeled UbcH5B-Ub for 1 hr and measured by TR-FRET assay; assay type: single protein
[9] = Induction of anti-CD3/CD28 antibodies-stimulated human T cell activation at 4 uM assessed fold increase in CD25 expression measured by ELISA assay; assay type: functional, T cell line
[10] = Induction of anti-CD3/CD28 antibodies-stimulated human T cell activation at 4 uM assessed fold increase in IL-2 secretion measured by ELISA assay; assay type: functional, T cell line
[11] = Induction of anti-CD3 antibodies-stimulated human T cell activation at 8 uM assessed fold increase in CD25 expression measured by ELISA assay; assay type: functional, T cell line; note: reference of the scale not given here
[12] = Induction of anti-CD3/CD28 antibodies-stimulated human T cell activation at 1 uM assessed fold increase in IL-2 secretion measured by ELISA assay; assay type: functional, T cell line

Kd [3]	IC50 [8]	SMILES	fold change (FC) [1]	fold change (FC) [2]	fold change (FC) [4]	fold change (FC) [5]	fold change (FC) [6]	fold change (FC) [7]	fold change (FC) [9]	fold change (FC) [10]	fold change (FC) [11]	fold change (FC) [12]
< 100 nM	< 100 nM	CC(c1cc2c(c(C(F)(F)F)c1)CN(c1cccc([C@H](C)Cc3nncn3C)c1)C2=O)N1CC[C@H](O)C1 (stereo partly drawn)	2.51	>=0.201	0.151	1.31	>=1.001	1.31	1.51	>=7.5	>=1.001	>=7.5
< 100 nM	< 100 nM	C[C@H](Cc1nncn1C)c1cccc(NC(=O)c2cc(C3CC3)nc(C3CC3)n2)c1	2.51	>=0.201	>=0.201	1.51	>=1.001	1.01	1.51	>=7.5	>=1.001	5
< 100 nM	< 100 nM	Cn1cnnc1CC1(c2cccc(N3Cc4c(cc(CN5CCC(F)(F)C5)cc4C(F)(F)F)C3=O)c2)COC1	2.51	>=0.201	>=0.201	1.01	>=1.001	1.01	1.01	>=7.5	>=1.001	>=7.5
< 100 nM	< 100 nM	Cc1n[nH]c(C)c1-c1cc2c(c(C(F)(F)F)c1)CN(c1cccc([C@H](C)Cc3nncn3C)c1)C2=O	2.51	>=0.201	>=0.201	1.51	>=1.001	1.31	>=1.76	>=7.5	>=1.001	>=7.5
< 100 nM	< 100 nM	CNc1cc([C@H](C)Cc2nncn2C)cc(N2Cc3c(cccc3C(F)(F)F)C2=O)n1	1.01	0.151	0.051	1.01	0.601	1.01	1.31	5	>=1.001	1.01
< 100 nM	< 100 nM	C[C@@H]1[C@@H](c2nncn2C)[C@H]1c1cccc(N2Cc3c(cccc3C(F)(F)F)C2=O)c1	>=7.5	>=0.201	0.101	1.01	>=1.001	>=1.76	1.31	5	>=1.001	2.51
< 100 nM	< 100 nM	C[C@H](Cc1nncn1C)c1cccc(N2Cc3c(cc(CN4CC(F)(F)C4)cc3C(F)(F)F)C2=O)c1	5	>=0.201	0.151	1.31	>=1.001	1.01	1.31	>=7.5	>=1.001	>=7.5
< 100 nM	< 100 nM	Cn1cnnc1CC(C)(C)c1cccc(N2Cc3c(cc(C4CC4)cc3C(F)(F)F)C2=O)c1	1.01	>=0.201	0.101	1.01	0.801	1.01	1.31	5	>=1.001	2.51
< 100 nM	< 100 nM	CC(O)c1cc2c(c(C(F)(F)F)c1)CN(c1cccc([C@H](C)Cc3nncn3C)c1)C2=O (stereo partly drawn)	2.51	>=0.201	0.151	1.31	0.801	1.01	1.31	>=7.5	>=1.001	5
< 100 nM	< 100 nM	Cn1cnnc1C(F)(F)[C@](C)(F)c1cccc(N2Cc3c(cc(CN4CC[C@@H](S(C)(=O)=O)C4)cc3C(F)(F)F)C2=O)c1	2.51	>=0.201	0.151	1.01	0.801	1.01	1.31	>=7.5	>=1.001	5
< 100 nM	< 100 nM	C[C@H](CC1=NN=CC1C(F)(F)F)c1cccc(N2Cc3c(cc(C(=O)N4CC[C@H](O)C4)cc3C(F)(F)F)C2=O)c1 (stereo partly drawn)	1.01	0.151	0.051	1.01	0.801	1.01	1.01	2.51	>=1.001	1.01
< 100 nM	< 100 nM	CCOc1cc([C@H](C)Cc2nncn2C)cc(N2Cc3c(cccc3C(F)(F)F)C2=O)n1	2.51	>=0.201	0.151	1.31	>=1.001	1.01	1.31	>=7.5	>=1.001	5
< 100 nM	< 100 nM	Cc1conc1C[C@@H](C)c1cccc(N2Cc3c(cc(C(=O)N4CC[C@H](O)C4)cc3C(F)(F)F)C2=O)c1	2.51	>=0.201	0.101	1.01	>=1.001	1.01	1.01	>=7.5	>=1.001	5
< 100 nM	< 100 nM	CC(C)Nc1cc([C@H](C)Cc2nncn2C)cc(N2Cc3c(cccc3C(F)(F)F)C2=O)n1	1.01	>=0.201	0.101	1.01	0.801	1.01	1.31	>=7.5	>=1.001	2.51
> 10000 nM		C[C@H](Cc1nncn1C)c1cccc(NC(=O)c2cc(C(=O)N3CC(O)C(F)(F)C3)ccn2)c1 (stereo partly drawn)	<=1	>=0.201	>=0.201	<=1	0.601	<=1	1.31	2.51	0.801	<=1
< 100 nM	< 100 nM	Cc1c[nH]nc1-c1cc2c(c(C(F)(F)F)c1)CN(c1cccc([C@H](C)Cc3nncn3C)c1)C2=O	1.01	>=0.201	>=0.201	1.51	0.601	1.31	>=1.76	>=7.5	0.801	5
< 100 nM		Cn1cnnc1C(F)(F)[C@](C)(F)c1cccc(N2Cc3c(cc(CN4CC(F)C4)cc3C(F)(F)F)C2=O)c1	1.01	>=0.201	0.101	1.01	0.801	1.01	1.31	>=7.5	>=1.001	5
< 100 nM		Cc1cc(C(=O)Nc2cccc([C@@](C)(F)C(F)(F)c3nncn3C)c2)nc(C2CC2)n1	1.01	>=0.201	0.101	1.31	0.801	1.01	1.31	>=7.5	>=1.001	2.51
